From ChEMBL document CHEMBL4706632, “Development of Potential Antitumor Agents from the Scaffolds of Plant-Derived Terpenoid Lactones” (J Med Chem, 2020)
One block for each compound: values may come before it.

What was measured:
Assay type in all cases: functional, cell-based
[1] = tested on: P388; experiment: Cytotoxicity against mouse P388 cells incubated for 48 hrs by MTT assay; conditions: P388, 48 h
[2] = tested on: HCT-116; experiment: Cytotoxicity against human HCT-116 cells by MTT assay
[3] = tested on: HepG2; experiment: Cytotoxicity against human HepG2 cells by MTT assay
[4] = tested on: BGC-823; experiment: Cytotoxicity against human BGC-823 cells by MTT assay
[5] = tested on: LNCaP C4-2B; experiment: Cytotoxicity against human LNCaP C4-2B cells incubated for 48 hrs by MTT assay
[6] = tested on: HCT-15; experiment: Cytotoxicity against human HCT-15 cells incubated for 48 hrs by MTT assay; conditions: HCT-15, 48 h
[7] = tested on: MDA-MB-231; experiment: Cytotoxicity against human MDA-MB-231 cells incubated for 48 hrs by MTT assay; conditions: MDA-MB-231, 48 h
[8] = tested on: L1210; experiment: Cytotoxicity against mouse L1210 cells
[9] = Antiproliferative activity against human Panc-28 cells incubated for 72 hrs by MTT assay; conditions: MDA-Panc-28, 72 h
[10] = tested on: HCT-116; experiment: Antiproliferative activity against human HCT-116 cells incubated for 72 hrs by WST-1 assay; conditions: HCT-116, 72 h
[11] = tested on: SW1990; experiment: Antiproliferative activity against human SW1990 incubated for 72 hrs by sulphorhodamine B assay; conditions: SW1990, 72 h
[12] = tested on: MCF7; experiment: Cytotoxicity against human MCF-7 cells incubated for 72 hrs by MTT assay; conditions: MCF7, 72 h
[13] = tested on: MDA-MB-231; experiment: Cytotoxicity against human MDA-MB-231 cells incubated for 72 hrs by MTT assay; conditions: MDA-MB-231, 72 h
[14] = tested on: PANC-1; experiment: Cytotoxicity against human Panc-1 cells incubated for 72 hrs by sulphorhodamine B assay; conditions: PANC-1, 72 h
[15] = tested on: HepG2; experiment: Cytotoxicity against human HepG2 cells incubated for 48 hrs by alamarblue reagent based assay; conditions: HepG2, 48 h
[16] = tested on: MCF7; experiment: Cytotoxicity against human MCF7 cells incubated for 48 hrs by alamarblue reagent based assay; conditions: MCF7, 48 h
[17] = tested on: LNCaP; experiment: Cytotoxicity against human LNCAP cells incubated for 48 hrs clonogenic survival assay; conditions: 48 h
[18] = tested on: PANC-1; experiment: Cytotoxicity against human Panc-1 cells incubated for 48 hrs by CCK8 assay; conditions: PANC-1, 48 h
[19] = tested on: A549; experiment: Cytotoxicity against human A549 cells by SRB staining assay
[20] = tested on: HCT-15; experiment: Cytotoxicity against human HCT-15 cells by SRB staining assay
[21] = tested on: SK-OV-3; experiment: Cytotoxicity against human SK-OV-3 cells by SRB staining assay
[22] = tested on: XF498; experiment: Cytotoxicity against human XF498 cells by SRB staining assay
[23] = tested on: SK-MEL-2; experiment: Cytotoxicity against human SK-MEL-2 cells by SRB staining assay
[24] = tested on: HeLa; experiment: Cytotoxicity against human HeLa cells incubated for 48 hrs by SRB assay
[25] = tested on: HepG2; experiment: Cytotoxicity against human HepG2 cells incubated for 48 hrs by SRB assay; conditions: HepG2, 48 h
[26] = tested on: IMR-32; experiment: Cytotoxicity against human IMR-32 cells incubated for 48 hrs by SRB assay; conditions: IMR-32, 48 h

SMILES: CC(C)[C@H]1OC(=O)C=C2[C@@]13O[C@@H]3[C@H]1OC(=O)[C@@]3(C)CCC[C@@]2(C)[C@@H]13
IC50 [1]: 240 nM

SMILES: CC(C)[C@]1(O)[C@H](O)[C@@H]2O[C@]23[C@]2(O[C@H]2C[C@H]2C4=C(CC[C@@]23C)C(=O)OC4)[C@@H]1O
IC50 [2]: > 10000 nM
IC50 [3]: > 10000 nM
IC50 [4]: > 10000 nM

SMILES: CC1(C)CCC[C@]2(C)[C@@H]1CC[C@@]13O[C@@H]1C1=C(CO)C(=O)O[C@]14O[C@@H]4[C@@H]23
IC50 [5]: 12000 nM
IC50 [6]: > 50000 nM
IC50 [7]: > 50000 nM

SMILES: C[C@H](CO)[C@H]1OC(=O)C=C2[C@@]3(C)[C@H](O)CC[C@]4(C)C(=O)O[C@H]([C@H]5O[C@@]251)[C@H]34
IC50 [1]: 2100 nM

SMILES: C=C1[C@@H](O)[C@@]2(O)OC[C@@]34[C@H]1[C@@H](OC(=O)/C=C(\C)CCCCC)C(=O)O[C@@H]3C[C@H]1C(C)=CC(=O)[C@@H](O)[C@]1(C)[C@@H]24
IC50 [8]: 90 nM

SMILES: CC1(C)O[C@H]2CC(=O)OC[C@]23[C@H]2CC[C@@]4(C)[C@H](C5=CC(=O)OC5O)OC(=O)[C@H]5O[C@]54[C@]2(C)C(=O)C[C@@H]13 (stereo not given in full)
IC50 [9]: 22000 nM

IC50 [10]: 67 nM
IC50 [11]: 100 nM
SMILES: COC(=O)[C@@]12OC[C@]34[C@H]([C@@H](O)[C@@H]1O)[C@@]1(C)CC(=O)C(O)=C(C)[C@@H]1C[C@H]3OC(=O)[C@H](OC(=O)C=C(C)C)[C@@H]24
IC50 [12]: 83 nM
IC50 [13]: 81 nM
IC50 [14]: 360 nM

SMILES: C=C1C(=O)O[C@@H]2C3O[C@]3(C)CC/C=C(\C)CC[C@@H]12 (stereo not given in full)
IC50 [15]: 17000 nM
IC50 [16]: 11000 nM

SMILES: C/C1=C\CC[C@@]2(C)O[C@H]2[C@H]2OC(=O)C(CNC(Cc3ccc(N(CCCl)CCCl)cc3)C(=O)O)[C@@H]2CC1 (stereo not given in full)
IC50 [15]: 260 nM
IC50 [16]: 1800 nM

SMILES: C/C=C(/C)C(=O)O[C@H]1C(C)=C2[C@H]([C@@H]1OC(=O)CCCCCCC)[C@@](C)(OC(C)=O)C[C@H](OC(=O)CCCCCCCCCCCNC(=O)[C@@H](N)CC(C)C)[C@@]1(O)[C@H]2OC(=O)[C@@]1(C)O
IC50 [17]: 14 nM

SMILES: CC(C)[C@]12O[C@H]1[C@@H]1O[C@]13[C@]1(O[C@H]1C[C@H]1C4=C(CC[C@@]13C)C(=O)OC4)[C@@H]2O [TRIPTOLIDE]
IC50 [18]: 200 nM

SMILES: CC(=O)O[C@@H]1C[C@H](O)[C@@]23COC(O)[C@]1(C)[C@@H]2C[C@@H](O)[C@@]1(C)[C@@H]2C(=O)C[C@@H](c4ccoc4)[C@]2(C)[C@@H](O)C(=O)[C@@H]13 (stereo not given in full)
IC50 [19]: 1700 nM
IC50 [20]: 3000 nM
IC50 [21]: 26000 nM
IC50 [22]: 3800 nM
IC50 [23]: 710 nM

SMILES: CC(C)(O)[C@]12O[C@H]1[C@@H]1O[C@]13[C@]1(O[C@H]1C[C@H]1C4=C(CC[C@@]13C)C(=O)OC4)[C@@H]2O
IC50 [2]: 390 nM
IC50 [3]: 770 nM
IC50 [4]: 200 nM

SMILES: C=C1[C@@H]2CC[C@@]3(C)[C@H](c4ccoc4)OC(=O)C[C@]13O[C@H]1C[C@H](OC(=O)CN3CCN(C(=O)c4ccccc4)CC3)C(C)(C)[C@H](CC(=O)OC)[C@]12C
IC50 [24]: 14000 nM
IC50 [25]: 10 nM
IC50 [26]: > 100000 nM

SMILES: CC1(C)CCC[C@]2(C)[C@@H]1CC[C@@]13O[C@@H]1C1=C(CO)C(=O)OC1=C[C@@H]23
IC50 [5]: 2200 nM
IC50 [6]: 13000 nM
IC50 [7]: 8800 nM
